This note sets out measurements from patent publication US20250161338A1, “Compounds for Anti-aging Intervention” (AGENCY FOR SCIENCE, TECHNOLOGY AND RESEARCH, priority 2022, published 2025).

Series [1] has as its system prototrophic yeast strain (CEN.PK113-7D). The series is described as follows: Propidium iodide fluorescence-based CLS method in yeast (incl. high-throughput screening).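 For PI intensity: untreated reference is eight DMSO and water control wells per plate.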 It counts as cell-based, Saccharomyces cerevisiae. To be noted: for Yeast CLS increase: Yes/No call of the screen. The procedure, abridged:
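CEN.PK113-7D aged in SD medium at 30 °C with compounds (rapamycin 0–10 nM; sugars 0–8 mM; screen at single concentrations). At each age point cells were stained with 5 μg/mL PI for 15 min; fluorescence was normalized to OD600, background-subtracted, and survival scaled against boiled-cell control.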

Series [2] shares this test system. The series is described as follows: Yeast outgrowth in YPD liquid medium (CLS of aged cells). It counts as cell-based, Saccharomyces cerevisiae. To be noted: age point day 14. The essentials: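 Cultures aged at 30 °C in SD medium with double-diluted rapamycin (0–10 nM) or sugars/polyols (0–8 mM). On day 14, 3 µL of culture was transferred into 200 µL YPD and outgrowth read as OD600. Survival expressed relative to day 1 outgrowth (100%).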

Setting [3] is: concentration tested 100 μM, solvent DMSO or water, chronological age point Day 7 (72 h growth = Day 1), lower = more survival.
Where [4] appears, read: concentration tested 100 μM, OD600 nm after 24 h in YPD at 30° C.
[5] abbreviates: concentration tested 30 μg/mL, solvent water, age point Day 7.
[6] abbreviates: concentration tested 30 μg/mL, OD600 nm after 24 h in YPD.

As to `COc1cc2c(c(OC)c1OC)-c1c(cc3c(c1OC)OCO3)C[C@H](C)[C@@](C)(O)C2` [Schisandrol B], the “Yeast CLS increase” value in series [1] (concentration tested 100 μM) is reported as “No”. For the same compound, the PI intensity in series [1] (setting [3]) is given as 80,051.7. In series [2] (setting [4]), this compound yielded an Outgrowth of 0.1.

Regarding `C[Se]CC[C@H](N)C(=O)O` [Selenomethionine], the “Yeast CLS increase” value in series [1] (concentration tested 100 μM) is “Yes”. The PI intensity in series [1] (setting [3]) was 29,837.8. This compound yielded an Outgrowth in series [2] (setting [4]) of 1.2.

Regarding `CN[C@@H]1C[C@H]2O[C@@](C)([C@@H]1OC)n1c3ccccc3c3c4c(c5c6ccccc6n2c5c31)C(=O)NC4` [Staurosporine], the “Yeast CLS increase” value in series [1] (concentration tested 100 μM) is listed as “No”. The PI intensity in series [1] (setting [3]) is 67,250.9. The Outgrowth in series [2] (setting [4]) came out at 0.1.

Take `C[C@H](Cn1cnc2c(N)ncnc21)OCP(=O)(O)O.O` [Tenofovir (hydrate), reference compound]: the “Yeast CLS increase” value in series [1] (concentration tested 100 μM) was “No”. In addition, in series [1] (setting [3]), the PI intensity is on record as 76,065.0. The compound further yielded an Outgrowth in series [2] (setting [4]) of 0.1.

On to `CC(C)N1CCN(c2ccc(OCC3COC(Cn4cncn4)(c4ccc(Cl)cc4Cl)O3)cc2)CC1` (stereo not drawn) [Terconazole, reference compound], for which the “Yeast CLS increase” value in series [1] (concentration tested 100 μM) is reported as “No”. Moreover, in series [1] (setting [3]), the PI intensity is listed as 72,350.0. In series [2] (setting [4]), the Outgrowth was found to be 0.1.

In the case of `Cc1nc(C)c(C)nc1C` [Tetramethylpyrazine], in series [1] (concentration tested 100 μM), the “Yeast CLS increase” value is reported as “No”. Moreover, the PI intensity in series [1] (setting [3]) is recorded as 62,003.6. Also, the Outgrowth in series [2] (setting [4]) is 0.1.

For the compound `Cc1ccc(C(C)C)c(O)c1` [Thymol], the “Yeast CLS increase” value in series [1] (concentration tested 100 μM) was “No”. In addition, the PI intensity in series [1] (setting [3]) is 61,503.8. The compound further yielded an Outgrowth in series [2] (setting [4]) of 0.1.

As for `O=C(O)CCCCCCCCCCCC(=O)O` [Tridecanedioic acid], in series [1] (concentration tested 100 μM), the “Yeast CLS increase” value is given as “No”. For the same compound, the PI intensity in series [1] (setting [3]) was 80,407.7. Besides, the Outgrowth in series [2] (setting [4]) is 0.1.

As for `O=c1ccn([C@@H]2O[C@H](CO)[C@@H](O)[C@H]2O)c(=O)[nH]1` [Uridine], the “Yeast CLS increase” value in series [1] (concentration tested 100 μM) is recorded as “No”. In addition, the PI intensity in series [1] (setting [3]) is recorded as 84,894.9. This compound returned an Outgrowth in series [2] (setting [4]) of 0.1.

For the compound `O[C@H]([C@H](O)[C@@H]1CO1)[C@H]1CO1` [VAL-083], the “Yeast CLS increase” value in series [1] (concentration tested 100 μM) is given as “No”. Moreover, the PI intensity in series [1] (setting [3]) is reported as 63,325.5. Also, in series [2] (setting [4]), the Outgrowth worked out at 0.1.

`COc1cc(C(=O)O)ccc1O` [Vanillic acid]: the “Yeast CLS increase” value in series [1] (concentration tested 100 μM) was “No”. Moreover, in series [1] (setting [3]), the PI intensity is reported as 64,546.4. In addition, the Outgrowth in series [2] (setting [4]) was determined as 0.1.

On to `COc1cc(O)c(C(C)=O)c(OC)c1` [Xanthoxylin], for which the “Yeast CLS increase” value in series [1] (concentration tested 100 μM) is on record as “No”. Further, the PI intensity in series [1] (setting [3]) is given as 70,352.1. Further, in series [2] (setting [4]), the Outgrowth is reported as 0.1.

On to `CCCCC[C@H](O)CC(=O)CCc1ccc(O)c(OC)c1` [[6]-Gingerol], for which the “Yeast CLS increase” value in series [1] (concentration tested 100 μM) was “No”. In series [1] (setting [3]), the PI intensity is given as 61,395.3. Moreover, the Outgrowth in series [2] (setting [4]) came out at 0.1.

On to `N#CCCN` [β-Aminopropionitrile], for which, in series [1] (concentration tested 100 μM), the “Yeast CLS increase” value is “No”. The PI intensity in series [1] (setting [3]) is reported as 65,865.6. This compound also yielded an Outgrowth in series [2] (setting [4]) of 0.1.

As for `CC(=O)O[C@H]1CC[C@H]2[C@@H]3CCc4cc(O)ccc4[C@H]3CC[C@]12C` [β-Estradiol 17-acetate], the “Yeast CLS increase” value in series [1] (concentration tested 100 μM) is recorded as “Yes”. For the same compound, the PI intensity in series [1] (setting [3]) is given as 34,621.0. For the same compound, the Outgrowth in series [2] (setting [4]) came to 0.5.

As to `CC1(C)CCC2=C(O1)c1ccccc1C(=O)C2=O` [β-Lapachone], the “Yeast CLS increase” value in series [1] (concentration tested 100 μM) is reported as “No”. Moreover, the PI intensity in series [1] (setting [3]) is recorded as 67,892.9. The same compound showed an Outgrowth in series [2] (setting [4]) of 0.1.

Consider Amarogentin, for which the “Yeast CLS increase” value in series [1] (concentration tested 100 μM) was “No”. The PI intensity in series [1] (setting [3]) is recorded as 70,083.5. The same compound displayed an Outgrowth in series [2] (setting [4]) of 0.1.

Aprotinin: the “Yeast CLS increase” value in series [1] (concentration tested 100 μM) is reported as “No”. Further, the PI intensity in series [1] (setting [3]) is 70,144.6. In series [2] (setting [4]), this compound registered an Outgrowth of 0.1.

For the compound Catechin, the “Yeast CLS increase” value in series [1] (concentration tested 100 μM) was “No”. The PI intensity in series [1] (setting [3]) is 63,589.5. This compound also returned an Outgrowth in series [2] (setting [4]) of 0.1.

On to Chondroitin (sulfate), for which the “Yeast CLS increase” value in series [1] (concentration tested 30 μg/mL) is “No”. Further, the PI intensity in series [1] (setting [5]) is listed as 75,572.6. The compound further came in with an Outgrowth in series [2] (setting [6]) of 0.1.

Take “Cisatracurium (besylate) [reference compound]”: in series [1] (concentration tested 100 μM), the “Yeast CLS increase” value is recorded as “No”. The PI intensity in series [1] (setting [3]) was 75,862.3. The compound also displayed an Outgrowth in series [2] (setting [4]) of 0.1.

Turning to Escin, the “Yeast CLS increase” value in series [1] (concentration tested 100 μM) was “No”. The PI intensity in series [1] (setting [3]) is on record as 70,495.1. The Outgrowth in series [2] (setting [4]) is 0.1.

Turning to “Estramustine (phosphate sodium) [reference compound]”, in series [1] (concentration tested 100 μM), the “Yeast CLS increase” value is on record as “No”. The PI intensity in series [1] (setting [3]) is reported as 77,514.0. In series [2] (setting [4]), this compound gave an Outgrowth of 0.2.

As for Estrone sulfate (potassium), the “Yeast CLS increase” value in series [1] (concentration tested 100 μM) is recorded as “No”. Besides, the PI intensity in series [1] (setting [3]) is given as 54,751.8. Also, the Outgrowth in series [2] (setting [4]) is given as 0.1.

Regarding “Gentamicin (sulfate) [reference compound]”, the “Yeast CLS increase” value in series [1] (concentration tested 30 μg/mL) is recorded as “No”. The PI intensity in series [1] (setting [5]) was 73,296.2. This compound also yielded an Outgrowth in series [2] (setting [6]) of 0.1.

With Gramicidin [reference compound], the “Yeast CLS increase” value in series [1] (concentration tested 100 μM) is “No”. Also, the PI intensity in series [1] (setting [3]) is reported as 79,922.3. The compound further registered an Outgrowth in series [2] (setting [4]) of 0.1.

Regarding “Heparin (Lithium salt) [reference compound]”, the “Yeast CLS increase” value in series [1] (concentration tested 30 μg/mL) was “No”. The PI intensity in series [1] (setting [5]) is 77,829.1. Also, in series [2] (setting [6]), the Outgrowth was found to be 0.1.

Take “Heparin (sodium salt) (MW 15 kDa) [reference compound]”: the “Yeast CLS increase” value in series [1] (concentration tested 30 μg/mL) was “No”. Further, the PI intensity in series [1] (setting [5]) is reported as 64,969.0. This compound had an Outgrowth in series [2] (setting [6]) of 0.1.

Take Hyaluronidase: the “Yeast CLS increase” value in series [1] (concentration tested 30 μg/mL) was “No”. In addition, the PI intensity in series [1] (setting [5]) was 78,406.7. The compound further gave an Outgrowth in series [2] (setting [6]) of 0.1.

As to Melanin, the “Yeast CLS increase” value in series [1] (concentration tested 100 μM) is “Yes”. The PI intensity in series [1] (setting [3]) was 39,360.1. The same compound showed an Outgrowth in series [2] (setting [4]) of 1.0.

In the case of Polidocanol [reference compound], the “Yeast CLS increase” value in series [1] (concentration tested 30 μg/mL) was “No”. Moreover, in series [1] (setting [5]), the PI intensity is recorded as 74,745.5. The Outgrowth in series [2] (setting [6]) was determined as 0.1.

Take Schisantherin B: the “Yeast CLS increase” value in series [1] (concentration tested 100 μM) is given as “No”. Further, in series [1] (setting [3]), the PI intensity is 68,765.7. In series [2] (setting [4]), this compound had an Outgrowth of 0.1.

With “Streptomycin (sulfate) [reference compound]”, the “Yeast CLS increase” value in series [1] (concentration tested 100 μM) is “No”. Also, the PI intensity in series [1] (setting [3]) is 60,638.5. This compound also had an Outgrowth in series [2] (setting [4]) of 0.1.

As for “Vincristine (sulfate) [reference compound]”, the “Yeast CLS increase” value in series [1] (concentration tested 100 μM) is “No”. Further, in series [1] (setting [3]), the PI intensity is on record as 62,812.1. The same compound showed an Outgrowth in series [2] (setting [4]) of 0.1.
